Measurements: US20250270212A1, “CHIMERIC COMPOUNDS USEFUL IN TREATING DISEASES” (Padarn Therapeutics, Inc., priority 2021, published 2025)
pEC50: −log10 of the molar value. Read-outs that look alike come from different tables or passages of the source.

Experiments:
[1] = target: recombinant PARP1 (AA662-1014) protein (Homo sapiens (Human), UniProt P09874); assay: Tracer displacement fluorescence polarization assay; conditions: displacement of AlexaFluor488 tracer from NAD+-binding site, PARP1 25 nM
Chain of recombinant PARP1 (AA662-1014) protein (P09874 662-1014): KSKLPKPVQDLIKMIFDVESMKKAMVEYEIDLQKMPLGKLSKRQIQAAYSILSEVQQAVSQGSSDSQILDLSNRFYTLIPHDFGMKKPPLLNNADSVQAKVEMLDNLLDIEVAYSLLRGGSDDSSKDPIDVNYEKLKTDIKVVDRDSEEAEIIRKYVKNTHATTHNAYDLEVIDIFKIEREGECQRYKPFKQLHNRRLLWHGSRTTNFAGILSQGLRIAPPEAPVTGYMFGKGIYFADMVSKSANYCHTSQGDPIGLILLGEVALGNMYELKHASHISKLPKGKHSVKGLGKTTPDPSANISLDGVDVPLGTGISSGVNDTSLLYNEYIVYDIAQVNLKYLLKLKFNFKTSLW
Procedure: Example B. Tracer Displacement Fluorescence Polarization Assays
Displacement of AlexaFlour488 marked tracer from the NAD+-binding site of recombinant PARP1 (AA662-1014) protein (OriGene, Cat #: AR09368PU-L) was measured in vitro using Fluorescence polarization assay. The reaction was carried out in assay buffer (50 mM TRIS-HCl pH 7.4-7.8, 150 mM NaCl, 10 mM MgCl2, 0.001% Triton-X). 2×PARP1 (final concentration 25 nM) was diluted in 1× Assay buffer and 10 μl of the solution per well was added into 384-well Black Non-Treated Reaction plate (Corning, Cat #4511). Plates were centrifuged for 1 min at 200 g. The compounds were prepared in a 384-well Diamond Well Plate (Axygen, Cat #P-384-120SQ-C-S) as 400× solutions in DMSO and were transferred into Reaction plate using the Biomek FX liquid handling system with intermediate dilution down to 10× working solution in assay buffer in a separate 384-well Diamond Well Plate (Axygen, Cat #P-384-120SQ-C-S) (2 μl per well). Plates were centrifuged for 1 min at 200 g and incubated for 15 min at room temperature in the dark. Then 8 μL per well of 2.5× Tracer AlexaFluor488 (final concentration 1 nM) diluted in 1× Assay buffer was added into Reaction plate. 1× Assay buffer was used to make blank samples for instrument calculations. Plates were incubated for 30 minutes at room temperature in the dark. Fluorescence polarization was measured using Microplate Reader (BMG, ClarioStar Plus). The % tracer displacement was used to calculate the IC50 values. The IC50 values are shown in Table A, wherein “A” corresponds to IC50<0.01 μM, “B” corresponds to 0.01 μM≤IC50<0.1 μM, “C” 0.1 μM≤IC50<[…], and “D” corresponds to […].

MDA-MB-231 = assay: Cellular growth inhibition assay (CellTiter-Glo); assay type: cell-based; conditions: Homo sapiens
Procedure: Example E. Cellular Growth Inhibition Assay
HEK293 (Institute of Cytology Russian Academy of Science), MDA-MB-231 (ATCC, CRM-HTB-26), HCC1395 (ATCC, CRL-2324), HCC1937 (ATCC, CRL-2336), UWB1.289+BRCA1 (ATCC, CRL-2946) were seeded at a density of 500 cells per well in a 384-well clear bottom plate (Greiner Cat #781090) in 45 μl total volume of DMEM (PanEco, Cat #C420) or RPMI (PanEco, Cat #C330) or RPMI/MEBM (Lonza, Cat #CC-3151+CC-4136) with 10% FBS (HyClone, Cat #SV30160.03). Cells were allowed to adhere overnight at 370 C, 5% CO2. 500× compounds solutions in DMSO (Sigma Cat #D2650) were prepared into Cmpnds plate (Diamond Well Plate, Axigen, Cat #P-384-120SQ-C-S) and DMSO only control was included. 1 μl of 500× compounds (Cmpnds plate) was added to 49 μl of culture medium into Dilution plate (Diamond Well Plate, Axigen, Cat #P-384-120SQ-C-S), mixed and then 5 μl of 10× compounds solutions were transferred to cells followed by centrifugation at 100 g for 1 min. Final DMSO concentration was 0.2%. After 3 days of incubation, 10 μl of 1× compounds were added to cells. […]

recombinant Wee1 protein = recombinant Wee1 protein (Homo sapiens (Human), UniProt P30291); assay: Wee1 enzymatic activity inhibition, ADP-Glo luminescence assay; assay type: biochemical; conditions: recombinant Wee1, PolyE4Y1 substrate, 1 h room temperature
Chain of recombinant Wee1 protein (P30291 whole entry): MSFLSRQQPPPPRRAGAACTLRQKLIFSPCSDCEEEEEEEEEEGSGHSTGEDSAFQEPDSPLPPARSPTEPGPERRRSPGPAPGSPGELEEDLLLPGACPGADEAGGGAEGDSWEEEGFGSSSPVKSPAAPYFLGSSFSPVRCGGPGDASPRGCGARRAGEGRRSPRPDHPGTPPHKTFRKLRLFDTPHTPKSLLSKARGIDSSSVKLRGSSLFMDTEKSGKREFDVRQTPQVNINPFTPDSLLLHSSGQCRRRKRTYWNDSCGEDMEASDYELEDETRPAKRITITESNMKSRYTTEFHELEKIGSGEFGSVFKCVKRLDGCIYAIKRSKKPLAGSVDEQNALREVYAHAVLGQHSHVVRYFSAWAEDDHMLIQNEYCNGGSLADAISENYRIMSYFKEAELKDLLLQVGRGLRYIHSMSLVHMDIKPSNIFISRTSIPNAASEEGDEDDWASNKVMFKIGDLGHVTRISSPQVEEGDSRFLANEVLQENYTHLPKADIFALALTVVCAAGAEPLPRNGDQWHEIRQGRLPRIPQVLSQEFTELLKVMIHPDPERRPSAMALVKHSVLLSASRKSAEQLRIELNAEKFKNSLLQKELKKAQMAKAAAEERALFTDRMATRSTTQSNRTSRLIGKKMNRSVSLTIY
Procedure: Example A. Primary Assay Used to Determine Potency of Wee1 Enzymatic Activity Inhibition
Compound activity was determined using recombinant Wee1 protein (BPS, Cat #40412) and PolyE4Y1 Substrate (Poly(Glu,Tyr) sodium salt, Sigma, Cat #P0275-25MG) in an in vitro enzymatic reaction. The enzymatic assay used to determine activity was a Luminescence assay using a Microplate Reader (BMG, ClarioStar Plus). The enzymatic reaction was carried out in assay buffer (40 mM TRIS-HCl pH 7.4-7.6, 20 mM MgCl2, 0.05 mM DTT, 0.1 mg/ml BSA, 5 mM MnCl2). The compounds were dispensed on a 384 well Diamond Well Plate (Axigen, Cat #P-384-120SQ-C-S) using the Biomek FX liquid handling system at 100× solutions of compounds in DMSO. 2×Wee1-PolyE4Y1 mix (final concentration 0.85 ng/μl of Wee1 and 0.2 μg/μl of PolyE4Y1) was prepared in 1× Assay buffer and 5.5 μl of mixture per well was added into 384w white Reaction plate with NBS (Corning, Cat #4513). 5.5 μl of PolyE4Y1 substrate w/o Wee1 in 1× buffer was used for negative control. Plates were centrifuged for 1 min at 100 g. Next step the Compounds were added to Reaction plate using Biomek station via following steps: 1 μl of 100× compounds (in DMSO) were mixed thoroughly with 49 μl of 2×10 μM ATP in Assay Buffer, then 5.5 μl of this mixture was added to Reaction plate with 5.5 μl of Wee1-PolyE4Y1 mix. Plates were centrifuged for 1 min at 100 g and incubated for 1 h at room temperature. Next 3 μL of ADP-Glo reagent (Promega, ADP-Glo™ Kinase Assay, Cat #V9102) per well was added. Plates were incubated for 30 minutes at room temperature. Then 6 μL of Kinase detection reagent (Promega, ADP-Glo™ Kinase Assay, Cat #V9102) per well was added and the Luminescence was measured using Microplate Reader. The % inhibition was then used to calculate the IC50 values. The IC50 values are shown in Table A, wherein “A” corresponds to IC50<0.01 μM, “B” corresponds to 0.01 μM≤IC50<0.1 μM, “C” 0.1 μM≤IC50<1 μM, and “D” corresponds to […].

[2] = 120 h, MDA-MB-231, 5 days, read-out: MDA-MB-231 EC50 (μM) 5 days
[3] = 168 h, MDA-MB-231, 7 days, read-out: MDA-MB-231 EC50 (μM) 7 days
[4] = 240 h, MDA-MB-231, 10 days, read-out: MDA-MB-231 EC50 (μM) 10 days

Row | Compound | pEC50 [1] | EC50 (MDA-MB-231; [2]) | EC50 (MDA-MB-231; [3]) | EC50 (MDA-MB-231; [4]) | pEC50 (recombinant Wee1 protein)
1 | C=CCn1c(=O)c2cnc(Nc3ccc(N4CCN(C(=O)c5cc(Cc6n[nH]c(=O)c7ccccc67)ccc5F)CC4)cc3)nc2n1-c1cccc(C(C)(C)O)c1 | > 8.00 | 0.69 µM | 0.66 µM | 0.11 µM | 
2 | Cn1c(=O)c2cnc(Nc3ccc(N4CCN(C(=O)c5cc(Cc6n[nH]c(=O)c7ccccc67)ccc5F)CC4)cc3)nc2n1-c1ccccn1 [Compound 3, 4-{4-Fluoro-3-[(4-{4-[(2-methyl-3-oxo-1-pyridin-2-yl-2,3-dihydro-1H-pyrazolo[3,4-d]pyrimidin-6-yl)amino]phenyl}piperazin-1-yl)carbonyl]benzyl}phthalazin-1(2H)-one] | > 8.00 | 3.75 µM |  |  | 6.00 to 7.00
3 | O=C(c1cc(Cc2n[nH]c(=O)c3ccccc23)ccc1F)N1CCN(c2ccc(Nc3ncc4c(=O)n(CCO)n(-c5ccccn5)c4n3)cc2)CC1 [Compound 15, 4-(4-Fluoro-3-{[4-(4-{[2-(2-hydroxyethyl)-3-oxo-1-pyridin-2-yl-2,3-dihydro-1H-pyrazolo[3,4-d]pyrimidin-6-yl]amino}phenyl)piperazin-1-yl]carbonyl}benzyl)phthalazin-1(2H)-one] | > 8.00 |  |  |  | 6.00 to 7.00
4 | C=CCn1c(=O)c2cnc(Nc3ccc(N4CCN(C(=O)c5cc(Cn6c(=O)[nH]c(=O)c7c(F)cccc76)ccc5F)CC4)cc3)nc2n1-c1cccc(C(C)(C)O)n1 [Compound 16, 1-[[3-[4-[4-[[2-Allyl-1-[6-(1-hydroxy-1-methyl-ethyl)-2-pyridyl]-3-oxo-pyrazolo[3,4-d]pyrimidin-6-yl]amino]phenyl]piperazine-1-carbonyl]-4-fluoro-phenyl]methyl]-5-fluoro-quinazoline-2,4-dione] | > 8.00 | 0.96 µM | 0.8 µM | 0.18 µM | 
5 | Cn1c(=O)c2cnc(Nc3ccc(N4CCN(C(=O)c5cc(Cn6c(=O)[nH]c(=O)c7c(F)cccc76)ccc5F)CC4)cc3)nc2n1-c1ncccn1 [Compound 29, 5-Fluoro-1-{4-fluoro-3-[(4-{4-[(2-methyl-3-oxo-1-pyrimidin-2-yl-2,3-dihydro-1H-pyrazolo[3,4-d]pyrimidin-6-yl)amino]phenyl}piperazin-1-yl)carbonyl]benzyl}quinazoline-2,4(1H,3H)-dione] | > 8.00 |  |  |  | 6.00 to 7.00
6 | Cn1c(=O)c2cnc(Nc3ccc(N4CCN(Cc5ccc(-c6[nH]c7cc(F)cc8c7c6CCNC8=O)cc5)CC4)cc3)nc2n1-c1ccccn1 [Compound 36, 8-Fluoro-2-{4-[(4-{4-[(2-methyl-3-oxo-1-pyridin-2-yl-2,3-dihydro-1H-pyrazolo[3,4-d]pyrimidin-6-yl)amino]phenyl}piperazin-1-yl)methyl]phenyl}-1,3,4,5-tetrahydro-6H-azepino[5,4,3-cd]indol-6-one] | > 8.00 |  |  |  | 7.00 to 8.00
7 | COCCn1c(=O)c2cnc(Nc3ccc(N4CCN(Cc5ccc(-c6[nH]c7cc(F)cc8c7c6CCNC8=O)cc5)CC4)cc3)nc2n1-c1ccccn1 [Compound 38, 8-Fluoro-2-(4-{[4-(4-{[2-(2-methoxyethyl)-3-oxo-1-pyridin-2-yl-2,3-dihydro-1H-pyrazolo[3,4-d]pyrimidin-6-yl]amino}phenyl)piperazin-1-yl]methyl}phenyl)-1,3,4,5-tetrahydro-6H-azepino[5,4,3-cd]indol-6-one] | 7.00 to 8.00 |  |  |  | 6.00 to 7.00
8 | Cn1c(=O)c2cnc(Nc3ccc(N4CCN(Cc5ccc(-c6[nH]c7cc(F)cc8c7c6CCNC8=O)cc5)CC4)cc3)nc2n1-c1cccc(C(C)(C)O)n1 [Compound 40, 8-Fluoro-2-[4-({4-[4-({1-[6-(1-hydroxy-1-methylethyl)pyridin-2-yl]-2-methyl-3-oxo-2,3-dihydro-1H-pyrazolo[3,4-d]pyrimidin-6-yl}amino)phenyl]piperazin-1-yl}methyl)phenyl]-1,3,4,5-tetrahydro-6H-azepino[5,4,3-cd]indol-6-one] | 7.00 to 8.00 |  |  |  | 7.00 to 8.00
9 | C=CCn1c(=O)c2cnc(N3CCN(Cc4ccc(-c5[nH]c6cc(F)cc7c6c5CCNC7=O)cc4)CC3)nc2n1-c1cccc(C(C)(C)O)n1 [Compound 44, 2-{4-[(4-{2-Allyl-1-[6-(1-hydroxy-1-methylethyl)pyridin-2-yl]-3-oxo-2,3-dihydro-1H-pyrazolo[3,4-d]pyrimidin-6-yl}piperazin-1-yl)methyl]phenyl}-8-fluoro-1,3,4,5-tetrahydro-6H-azepino[5,4,3-cd]indol-6-one] | > 8.00 |  |  |  | ≤ 9.00
10 | Cn1c(=O)c2cnc(Nc3ccc(N4CCC(n5cc6cccc(C(N)=O)c6n5)CC4)cc3)nc2n1-c1ccccn1 [Compound 83] | 7.00 to 8.00 |  |  |  | 7.00 to 8.00
11 | Cn1c2nc(Nc3ccc(N4CCC(n5cc6cccc(C(N)=O)c6n5)CC4)cc3)ncc2c(=O)n1-c1ccccn1 [Compound 86] | 7.00 to 8.00 |  |  |  | 6.00 to 7.00
12 | Cn1c(=O)c2cnc(Nc3ccc(N4CCC(c5nc6cccc(C(N)=O)c6[nH]5)CC4)cc3)nc2n1-c1ccccn1 [Compound 95, 2-[1-[4-[[2-methyl-3-oxo-1-(2-pyridyl)pyrazolo[3,4-d]pyrimidin-6-yl]amino]phenyl]-4-piperidyl]-3H-benzimidazole-4-carboxamide] | 7.00 to 8.00 |  |  |  | 7.00 to 8.00
13 | Cn1c(=O)c2cnc(Nc3ccc(N4CCCC(c5nc6cccc(C(N)=O)c6[nH]5)C4)cc3)nc2n1-c1ccccn1 (stereo not drawn) [Compound 96, 2-[1-[4-[[2-methyl-3-oxo-1-(2-pyridyl)pyrazolo[3,4-d]pyrimidin-6-yl]amino]phenyl]-3-piperidyl]-3H-benzimidazole-4-carboxamide] | 7.00 to 8.00 | 2.77 µM |  |  | 
14 | Cn1c2nc(Nc3ccc(N4CCCC(c5nc6cccc(C(N)=O)c6[nH]5)C4)cc3)ncc2c(=O)n1-c1ccccn1 (stereo not drawn) [Compound 97] | 7.00 to 8.00 |  |  |  | 6.00 to 7.00
